The source of these data is PubChem BioAssay (NCI).

Molecules are shown by their SMILES.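 96-well plates; 48 h exposure; 5 concentrations. Endpoints by linear interpolation between flanking doses. Not reached: highest tested concentration assigned. TGI marks complete inhibition of growth.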 Square brackets hold non-standard residues; d marks the D form. Peptide text beside a SMILES is read from it. Phe(4-NO2) = N[CH](Cc1ccc([N+](=O)[O-])cc1)C(=O)O

What all share (test): NCI-60 cell line screen, 48 h
Test [1] relates to 786-0 renal.
The test system of test [2] is DU-145 prostate.
Test [3] deals with HOP-62 NSCLC.
Test [4] relates to HS 578T breast.
The test system of test [5] is KM12 colon.
The test system of test [6] is NCI-H23 lung.
The subject of test [7] is NCI-H522 lung.
The subject of test [8] is SF-268 CNS.
Test [9] deals with SF-295 CNS.
The subject of test [10] is SK-MEL-28 melanoma.
For test [11], the system named is SK-OV-3 ovarian.
The test system of test [12] is TK-10 renal.
In test [13] the test system is UACC-257 melanoma.
Test [14] relates to UO-31 renal.
The test system of test [15] is COLO 205 colon.
For test [16], the system named is UACC-62 melanoma.

In the case of `CCOc1cc(/C=C2\N=C(c3ccccc3)N(c3nc4ccccc4s3)C2=O)ccc1O`, the TGI was > 100 µM in test [1]; > 100 µM in test [2]; > 100 µM in test [3]; 85.6 µM in test [4]; > 100 µM in [5]; 77.8 µM in test [6]. In addition, the TGI is 60 µM in test [7]; > 100 µM in test [8]; > 100 µM in test [9]; > 100 µM in test [10]; > 100 µM in [11]; > 100 µM in [12]. In addition, the TGI in test [13] and in test [14] was > 100 µM each time.

Consider `C#CCOC(=O)[C@@H](C)c1ccc2cc(OC)ccc2c1`, for which the TGI in [1], in test [15], in test [2], in test [3], in [4] and in test [5] was > 100 µM in each case. Also, the TGI in [6], in test [7], in test [8], in [9], in test [11] and in [12] was > 100 µM throughout. The TGI in test [13], in [16] and in test [14] was > 100 µM throughout.

As for `COc1ccc(C(=O)N(Cc2cccnc2)C(=S)N(Cc2cccnc2)C(=O)c2ccc(OC)cc2)cc1`, the TGI in test [1], in test [15], in [2], in test [3], in test [4] and in test [5] was > 100 µM each time. The TGI in [6], in [7], in test [8], in test [9], in test [10] and in test [11] was > 100 µM throughout. The TGI in [12], in test [13] and in test [16] was > 100 µM throughout.

For the compound `COC(=O)CCC(NC(=O)C(CCC(=O)OC)NC(=O)C(CCC(=O)OC)NC(=O)C(CCC(=O)OC)NC(=O)C(CCC(=O)OC)NC(=O)C(Cc1ccc([N+](=O)[O-])cc1)NC(=O)C(CCC(=O)OC)NC(=O)C(CCC(=O)OC)NC(=O)C(CCC(=O)OC)NC(=O)C(CCC(=O)OC)NC(=O)C(CCC(=O)OC)NC(C)=O)C(N)=O` (configuration not stated) (Ac-E(OMe)E(OMe)E(OMe)E(OMe)E(OMe)[Phe(4-NO2)]E(OMe)E(OMe)E(OMe)E(OMe)E(OMe)-NH2; configuration not given here), the TGI in test [1], in [15], in test [2], in test [4], in test [5] and in test [6] was > 100 µM throughout. The TGI in test [7], in test [8], in [9], in test [10], in test [11] and in [12] was > 100 µM each time. For the same compound, the TGI in [13] and in [14] was > 100 µM each time.

In the case of `CC1(C)CC[C@]2(C(=O)O)CC[C@]3(C)C(=CC[C@@H]4[C@@]5(C)CC[C@H](OC6OC(CO)C(O)C(O)C6O)C(C)(C)[C@@H]5CC[C@]43C)[C@@H]2C1` (some centres not stated), the TGI in [1] came to 3.23 µM; in test [15], 3.21 µM; in [2], 4.49 µM; in test [3] it was 3.14 µM; in test [4], 4.74 µM; in test [5] it was 2.86 µM. Further, the TGI in test [6] stood at 3.52 µM; in test [7], 2.91 µM; in [8], 3.51 µM; in test [9] it was 3.2 µM; in [10], 3.69 µM; in [11], 3.16 µM. The TGI in test [13] amounted to 3.13 µM; in [16], 3.28 µM; in test [14], 3.1 µM.

Regarding `COc1ccc(NC(=O)CC(=O)N2N=C(C)C(N=Nc3ccc(C(=O)O)cc3)C2=O)cc1` (configuration not stated), the TGI in test [1], in test [15], in test [2], in test [3], in test [4] and in test [5] was > 100 µM in each case. For the same compound, the TGI in [6], in [7], in test [8], in [9], in [10] and in test [12] was > 100 µM throughout. Besides, the TGI in test [13], in [16] and in [14] was > 100 µM each time.

Take `CCSc1nc(C)nc2c1sc1nc3ccccc3n12`: the TGI in test [1] was > 100 µM; in [15], > 100 µM; in test [2] it was > 100 µM; in test [4] it was 92.9 µM; in [5] it was > 100 µM; in [6], > 100 µM. For the same compound, the TGI in [7], in test [8], in [9], in test [10], in test [11] and in test [12] was > 100 µM in each case. In addition, the TGI in test [13], in [16] and in test [14] was > 100 µM throughout.

For the compound `CN(C)c1c(C2CC(O)C(CO)O2)c(=O)c1=O` (configuration not stated), the TGI in test [1], in test [2], in [3], in test [4], in test [5] and in test [7] was > 100 µM throughout. For the same compound, the TGI in test [8], in test [9], in [10], in test [11], in [12] and in [13] was > 100 µM each time. Further, the TGI in test [16] and in test [14] was > 100 µM throughout.

For the compound `C=CCN(c1cc(OC)c2c(c1[N+](=O)[O-])C(C)(SC)C(=O)N2)S(C)(=O)=O` (configuration not stated), the TGI in test [1], in test [15], in [2], in test [4], in test [5] and in test [6] was > 100 µM each time. Also, the TGI in test [7], in [8], in [9], in [10], in [11] and in test [12] was > 100 µM throughout. In addition, the TGI in test [13], in test [16] and in [14] was > 100 µM throughout.
